Measured values from paper PMC9886975, “Ligand recognition mechanism of the human relaxin family peptide receptor 4 (RXFP4)” (Nature Communications, 2023).
Several values for one entry are separate records, joined by “and”; a condition that tells them apart may be missing. Identical values can stand only once. Like-named read-outs stand apart in the source and are kept apart here.

What was measured:
[1] = biological target: T1, RXFP4 T295V (Homo sapiens, UniProt Q8TDU9, T295V); test: cAMP accumulation, RXFP4 T295V; format: cell-based
T1 construct: RXFP4(1-374)-; expressed in transfected cells; host or cells: HEK293T, transient (pCMV6)
Text: (§1) The full-length human RXFP4 (NCBI Reference Sequence: NM_181885.3) was cloned into a modified pFastBac vector (Invitrogen) with HA signal peptide to enhance receptor expression, followed by a 10× histidine tag and BRIL insertion at the N terminus. LgBiT subunit (Promega) was fused at the C terminus of RXFP4 connected by a 15-amino acid polypeptide linker. […] The engineered human Gαi2, Gβ1, bovine Gγ2, and scFv16 were cloned into the pFastBac vector (Invitrogen), respectively. For cAMP accumulation assay, human RXFP4 and RXFP3 (NCBI Reference Sequence: NM_016568.3) were cloned into pCMV6 constructs (OriGene Technologies). The mutant receptors were modified by site-directed mutagenesis in the setting of the WT constructs, with the primers designed by QuikChange Primer Design [QuickChange Primer Design (http://agilent.com.cn)] and carried out using Phanta Max Master (Vazyme). N-terminal Flag tag was added to both WT and mutant receptors for surface expression measurement. Sequences of all primers used in this study were provided in Supplementary Table 6, and all the constructs were confirmed by DNA sequencing.
(§2) CHO-K1 (ATCC, Cat#CCL-61) cells stably expressing human RXFP4 (hRXFP4-CHO) or RXFP3 (hRXFP3-CHO) were maintained in DMEM/F12 (Gibco) supplemented with 10% (v/v) fetal bovine serum (FBS) and 2 mM L-glutamine. Human embryonic kidney 293 T cells containing SV40 large T-antigen (HEK293T, ATCC, Cat#64127316) were maintained in DMEM (Gibco) supplemented with 10% (v/v) FBS, 1 mM sodium pyruvate (Gibco), 100 units/mL penicillin and 100 μg/mL streptomycin at 37 °C in 5% CO2. For cAMP assays in mutants, HEK293T cells were seeded onto 6-well cell culture plates at a density of 7 × 10^5 cells per well. […] Following 24 h culturing, the transfected cells were ready for detection.
(§3) Ligands were verified for their bioactivity in the beginning in hRXFP4-CHO, which were ready for use after 24 h culturing. […] The time-resolved fluorescence resonance energy transfer (TR-FRET) signals were detected by an EnVision multilabel plate reader (PerkinElmer) with the emission window ratio of 665 nm over 620 nm under 320 nm excitation. […]
(§4) Inhibition of forskolin-induced cAMP accumulation was performed in HEK293T cells transiently transfected with WT and mutant receptors. All the mutant constructs were modified by single-point mutation in the setting of the WT receptor. cAMP accumulation data were analyzed using a three-parameter logistic equation to determine pEC50 and Emax values. Emax values for mutants are defined as the window between the maximal response and vehicle control (no ligand) and expressed as a percentage of the WT. Cell surface expression was assessed by flow cytometry to detect the N-terminal Flag epitope label on the receptors and normalized to the WT receptor (shown as percentage). […]

[2] = biological target: T2, human RXFP4 (Homo sapiens, UniProt Q8TDU9); test: inhibition of forskolin-induced cAMP accumulation, WT RXFP4 (hRXFP4-CHO); format: cell-based
T2 construct: expressed in transfected cells
Procedure: (§5) CHO-K1 (ATCC, Cat#CCL-61) cells stably expressing human RXFP4 (hRXFP4-CHO) or RXFP3 (hRXFP3-CHO) were maintained in DMEM/F12 (Gibco) supplemented with 10% (v/v) fetal bovine serum (FBS) and 2 mM L-glutamine. Human embryonic kidney 293 T cells containing SV40 large T-antigen (HEK293T, ATCC, Cat#64127316) were maintained in DMEM (Gibco) supplemented with 10% (v/v) FBS, 1 mM sodium pyruvate (Gibco), 100 units/mL penicillin and 100 μg/mL streptomycin at 37 °C in 5% CO2. For cAMP assays in mutants, HEK293T cells were seeded onto 6-well cell culture plates at a density of 7 × 10^5 cells per well. After overnight incubation, cells were transfected with WT or mutant receptors using Lipofectamine 3000 transfection reagent (Invitrogen). Following 24 h culturing, the transfected cells were ready for detection.
(§6) Ligands were verified for their bioactivity in the beginning in hRXFP4-CHO, which were ready for use after 24 h culturing. For assaying mutants, HEK293T cells were used 24 h post transfection. Cells were digested with 0.02% (w/v) EDTA and seeded onto 384-well microtiter plates at a density of 8 × 10^5 cells/mL in cAMP stimulation buffer [HBSS supplemented with 5 mM HEPES, 0.1% (w/v) bovine serum albumin (BSA) and 0.5 mM 3-isobutyl-1-methylxanthine]. The cells were stimulated with different concentrations of ligands plus 1.5 μM forskolin in RXFP4 and 4 μM forskolin in RXFP3. […] The time-resolved fluorescence resonance energy transfer (TR-FRET) signals were detected by an EnVision multilabel plate reader (PerkinElmer) with the emission window ratio of 665 nm over 620 nm under 320 nm excitation. […]
(§7) All functional study data were analyzed using GraphPad Prism 8.3 (GraphPad Software) and presented as means ± S.E.M. from at least three independent experiments. Dose-response curves were evaluated with a three-parameter logistic equation. The significance was determined with either a two-tailed Student’s t-test or one-way ANOVA with Dunnett’s multiple comparison test, and P < 0.05 was considered statistically significant.

[3] = biological target: T2, human RXFP4; test: competitive Eu-R3/I5 binding, RXFP4
Procedure: CHO-K1 cells stably transfected with RXFP3 or RXFP4 were plated onto pre-coated poly-L-lysine 96-well plates. The competitive binding assays were performed with 5 nM Eu-H3 B1-22R (RXFP3) or Eu-R3/I5 (RXFP4) in the presence of increasing amounts of ligands as previously described[21],[86],[87]. Time-resolved fluorescence measurements were carried out at an excitation wavelength of 340 nm and an emission wavelength of 614 nm on a BMG POLARstar plate reader (BMG Labtech, Melbourne, Australia). Binding was performed in at least three independent experiments with triplicate determinations within each assay. Data are presented as means ± S.E.M. of specific binding and were fitted using a one-site binding curve in Prism software (GraphPad).
as §7

[4] = biological target: T3, RXFP4 H299A (Homo sapiens, UniProt Q8TDU9, H299A); test: cAMP accumulation, RXFP4 H299A; format: cell-based
T3 construct: RXFP4(1-374)-; expressed in transfected cells; host or cells: HEK293T, transient (pCMV6)
Text: as §1, §5, §6, §4

[5] = biological target: T4, RXFP4 R194A (Homo sapiens, UniProt Q8TDU9, R194A); test: cAMP accumulation, RXFP4 R194A; format: cell-based
T4 construct: RXFP4(1-374)-; expressed in transfected cells; host or cells: HEK293T, transient (pCMV6)
Text: as §1, §5, §6, §4

[6] = biological target: T5, RXFP4 L118S+V122S (Homo sapiens, UniProt Q8TDU9, L118S/V122S); test: cAMP accumulation, RXFP4 L118S+V122S; format: cell-based; conditions: HEK293T
T5 construct: RXFP4(1-374)-; expressed in transfected cells; host or cells: HEK293T, transient (pCMV6)
Text: as §1, §2, §3, §4

[7] = biological target: T6, RXFP4 K273A (Homo sapiens, UniProt Q8TDU9, K273A); test: cAMP accumulation, RXFP4 K273A; format: cell-based
T6 construct: RXFP4(1-374)-; expressed in transfected cells; host or cells: HEK293T, transient (pCMV6)
Text: as §1, §2, §3, §4

[8] = biological target: T7, RXFP4 WT (Homo sapiens, UniProt Q8TDU9); test: cAMP accumulation, WT RXFP4 (HEK293T); format: cell-based; conditions: 1.5 μM forskolin, mean ± S.E.M.; for EC50: 40 min RT, TR-FRET, n = 6 to 8
T7 construct: RXFP4(1-374)-; expressed in transfected cells; host or cells: HEK293T, transient (pCMV6)
Text: as §1, §2, §3, §4

[9] = biological target: T8, RXFP4 F105A (Homo sapiens, UniProt Q8TDU9, F105A); test: cAMP accumulation, RXFP4 F105A; format: cell-based
T8 construct: RXFP4(1-374)-; expressed in transfected cells; host or cells: HEK293T, transient (pCMV6)
Text: as §1, §5, §6, §4

[10] = HEK293T, 1.5 μM forskolin, mean ± S.E.M., n = 3, read-out: pEC50 (converted)

T3 sequence (Q8TDU9 whole entry H299A): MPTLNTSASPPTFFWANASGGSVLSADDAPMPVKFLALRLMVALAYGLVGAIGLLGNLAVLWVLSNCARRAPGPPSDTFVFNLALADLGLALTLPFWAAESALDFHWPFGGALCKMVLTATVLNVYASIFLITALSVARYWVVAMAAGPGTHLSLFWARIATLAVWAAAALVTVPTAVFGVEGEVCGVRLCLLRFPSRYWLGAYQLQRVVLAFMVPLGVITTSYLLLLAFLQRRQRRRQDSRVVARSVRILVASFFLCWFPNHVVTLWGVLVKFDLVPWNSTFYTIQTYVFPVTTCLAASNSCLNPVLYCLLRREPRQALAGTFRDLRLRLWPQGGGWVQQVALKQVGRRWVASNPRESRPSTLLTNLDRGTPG
T4 sequence (Q8TDU9 whole entry R194A): as the sequence (Q8TDU9 whole entry H299A) above, with R194A, A299H counted along it
T7 sequence (Q8TDU9 whole entry): as the sequence (Q8TDU9 whole entry H299A) above, with A299H counted along it
T2 sequence (Q8TDU9 whole entry): as the sequence (Q8TDU9 whole entry H299A) above, with A299H counted along it
T8 sequence (Q8TDU9 whole entry F105A): as the sequence (Q8TDU9 whole entry H299A) above, with F105A, A299H counted along it
T5 sequence (Q8TDU9 whole entry L118S/V122S): as the sequence (Q8TDU9 whole entry H299A) above, with L118S, V122S, A299H counted along it
T6 sequence (Q8TDU9 whole entry K273A): as the sequence (Q8TDU9 whole entry H299A) above, with K273A, A299H counted along it
T1 sequence (Q8TDU9 whole entry T295V): as the sequence (Q8TDU9 whole entry H299A) above, with T295V, A299H counted along it

## CCOc1cc2c(cc1OC)CCN(C(=O)N1CCOCC1)[C@H]2CCc1c[nH]c2ccc(OC)cc12 [DC591053, (S)-(7-ethoxy-6-methoxy-1-(2-(5-methoxy-1H-indol-3-yl)ethyl)−3,4-dihydroisoquinolin-2(1H)-yl)(morpholino)methanone]
[1]; HEK293T, 1.5 μM forskolin, mean ± S.E.M., n = 3 to 5, read-out: pEC50 (converted)
  EC50: 64.6 nM
[1]; HEK293T, mean ± S.E.M.
  Emax: 30.00 ± 4.54 % WT
[2]; stably-transfected CHO-K1
  agonism: full agonism
[2]; stably-transfected CHO-K1, 1.5 μM forskolin, 40 min RT, TR-FRET, mean ± S.E.M., n = 3, read-out: pEC50 (converted)
  EC50: 57.5 nM
[3]; stably-transfected CHO-K1, 5 nM Eu-R3/I5, mean ± S.E.M., n = 3, read-out: pKi (converted)
  Ki: 112 nM
[4]; HEK293T
  reduction of Emax vs WT: 65%
[4]; HEK293T, 1.5 μM forskolin, mean ± S.E.M., n = 3, N.A., not active, read-out: pEC50 (converted)
  EC50: 3.63 nM
[4]; HEK293T, mean ± S.E.M.
  Emax: 36.04 ± 4.01 % WT
[5]; HEK293T
  decrease of potency vs WT: 8.1 fold
[5]; [10]
  EC50: 282 nM
[5]; HEK293T, mean ± S.E.M.
  Emax: 81.10 ± 7.60 % WT
[6]
  decrease of potency vs WT: 20.9 fold
[6]; 1.5 μM forskolin, mean ± S.E.M., n = 3, N.A., not active
  EC50: 724 nM
[6]; mean ± S.E.M.
  Emax: 84.85 ± 8.36 % WT
[7]; HEK293T, 1.5 μM forskolin, mean ± S.E.M., n = 3 or 4, read-out: pEC50 (converted)
  EC50: 1860 nM
[7]; HEK293T, mean ± S.E.M.
  Emax: 68.51 ± 8.34 % WT
[8]; HEK293T, read-out: pEC50 (converted)
  EC50: 34.7 nM
[8]; HEK293T
  Emax: 97.18 ± 3.11 % WT
[9]; HEK293T
  decrease of potency vs WT: 4.9 fold
[9]; [10]
  EC50: 170 nM
[9]; HEK293T, mean ± S.E.M.
  Emax: 57.39 ± 4.17 % WT

## CC[C@H](C)[C@@H]1NC(=O)[C@H](Cc2ccc(O)cc2)NC(=O)[C@H]([C@@H](C)CC)NC(=O)[C@H](C(C)C)NC(=O)[C@H]([C@@H](C)O)NC(=O)[C@H](CCCNC(=N)N)NC(=O)[C@H]([C@@H](C)CC)NC(=O)[C@H](Cc2ccc(O)cc2)NC(=O)[C@H](CCC(=O)O)NC(=O)[C@H](CC(C)C)NC(=O)CNC(=O)[C@@H](NC(=O)[C@H](CC(C)C)NC(=O)[C@H](CCCNC(=N)N)NC(=O)[C@@H](NC(=O)[C@H](CO)NC(=O)[C@H](CCC(=O)O)NC(=O)[C@@H](N)CCCCN)C(C)C)CSSC[C@@H]2NC(=O)[C@@H](NC(=O)[C@H](CC(C)C)NC(=O)[C@@H](NC(=O)[C@H](CCC(N)=O)NC(=O)[C@H](CC(C)C)NC(=O)[C@H](CC(=O)O)NC(=O)[C@@H](N)CCC(N)=O)[C@@H](C)O)CSSC[C@H](NC(=O)CNC(=O)[C@H](CC(=O)O)NC(=O)[C@H]([C@@H](C)O)NC2=O)C(=O)N[C@@H](CO)C(=O)N[C@@H](CCSC)C(=O)N[C@@H]([C@@H](C)O)C(=O)N[C@@H](CC(=O)O)C(=O)N[C@@H](CC(C)C)C(=O)N[C@@H](CO)C(=O)N[C@@H](C)C(=O)N[C@@H](CC(C)C)C(=O)N[C@H](C(=O)O)CSSC[C@@H](C(=O)N[C@@H](C)C(=O)N[C@@H](CO)C(=O)N[C@@H](CO)C(=O)N[C@@H](CCCNC(=N)N)C(=O)N[C@@H](Cc2c[nH]c3ccccc23)C(=O)O)NC1=O [INSL5, insulin-like peptide 5]
[1]
  EC50: 0.692 nM
[1]; HEK293T, mean ± S.E.M.
  Emax: 91.17 ± 6.47 % WT
[2]
  EC50: 1.58 nM
[3]
  Ki: 6.46 nM
[4]
  EC50: 0.955 nM
[4]; HEK293T, mean ± S.E.M.
  Emax: 30.77 ± 3.77 % WT
[5]
  EC50: 1.66 nM
[5]; HEK293T, mean ± S.E.M.
  Emax: 79.76 ± 6.06 % WT
[6]
  response: inactive
[7]
  EC50: 3.55 nM
[7]; HEK293T, mean ± S.E.M.
  Emax: 58.10 ± 7.38 % WT
[8]; HEK293T
  Emax: 99.88 ± 2.28 % WT and 98.86 ± 3.65 % WT
[8]; pEC50, HEK293T
  EC50: 0.759 nM and 0.955 nM
[9]
  EC50: 10 nM
[9]; HEK293T, mean ± S.E.M.
  Emax: 80.16 ± 4.08 % WT
